# Patent publication US5965434A, “Amphipathic PH sensitive compounds and delivery systems for delivering biologically active compounds” (priority 1994, dated 1999)
# Key:
# [1] = background; cited from earlier work
# [2] = pK by differential titration; settings: 0.5% triton x-100
# Description: 4-5 μmoles of compounds 1, 4, 5, 6 or 8 in a chloroform solution were dried in separate 1.5 ml microcentrifuge tubes under a vacuum overnight. The dried compounds were dissolved in […] of a 0.5% water solution of Triton X-100, pH 3.5. A 20 mM NaOH solution was added to each tube using a Dilutor 401 (Gilson Co.) and the pH was monitored using a Beckman .phi. 72 pH meter. The pKa's of the compounds were determined from differential titration curves. The transfections of the 3T3 cells were done with liposome preparations containing Dioleoylphosphatidylcholine as described above.
# [3] = system: 3T3 cells; experiment: Transfection of plasmid pBS.RSVLux into 3T3 cells, luciferase activity; assay type: cell-based, mouse; settings: Table 13
# Description: Liposomes were prepared by mixing chloroform solutions of the different lipids in microcentrifuge tubes with a 1.5 ml and removing the chloroform by vacuum to produce the dried lipid films. Tubes were placed under vacuum overnight to remove solvent traces. The amounts of cationic lipids in all cases were 1.34 mmol/ml with different amounts of other lipids as specified. One ml of sterile 10 mM HEPES buffer, pH 7.8, was added, and the tubes were sealed and vortexed for 1 min at room temperature and sonicated to obtain a clear emulsion.
# The following cell lines were used: mouse 3T3 fibroblasts, COS cells (monkey kidney cell line transformed with the SV40 T ag), HeLa (human carcinoma cells), HepG2 (human hepatoma cell), 293 (monkey kidney cell line transformed with the adenovirus E1 gene ) were maintained in Dulbeco's Modified MEM media supplemented with 10% fetal calf serum. All cultures were maintained in a humidified atmosphere of 5% CO2 in air at 37° C. The cells were seeded in a 6-well plate (35 mm culture dishes) or a 12 well-plate (25 mm culture dishes) 24 h before the transfection at 70% confluence. Before transfection, the cells was washed once with Opti-MEM. In case of the 35 mm culture dishes, four μg of plasmid DNA (containing the luciferase or β-galactosidase reporter genes described below) in 0.75 ml of Opti-MEM was mixed with various amounts of liposomes in 0.75 ml of Opti-MEM. In case of the 25 mm culture dishes, one or two μg DNA in 400 μl of Opti-MEM was mixed with 400 μl of liposomes in 400 μl of Opti-MEM. The mixtures were incubated for 30 min at room temperature prior to being added to the cells in the culture dish. […]
# The firefly luciferase and E. coli β-galactosidase reporter genes were used to determine the efficiency of DNA transfer quantitatively. […]
# For determination of luciferase activity, cells were lysed by the addition of 100 ml for 25 mm plates and 200 μl for 35 mm plates of lysis buffer (0.1% Triton X-100, 0.1M K-phosphate, 1 mM DTT, pH 7.8). 20 μl of the cellular extract were analyzed for luciferase activity. […]
# [4] = background; cited from earlier work; remark: listed apart in the source
# [5] = Dioleoylphosphatidylcholine content 1:1
Structure (SMILES),Cytotoxicity [1],pKa [2],other results
"CCCCCCCCCCCCCCCC[N+](C)(C)C.[Br-] [CTAB, cetyltrimethylammonium bromide]",significant cytotoxicity,,
"CC(C)CCC[C@@H](C)[C@H]1CC[C@H]2[C@@H]3CC=C4C[C@@H](OC(=O)CCC[N+](C)(C)C)CC[C@]4(C)[C@H]3CC[C@]12C [ChoTB, cholesteryl (4'-trimethylammonio)butanoate]",no evidence of reduced cytotoxicity,,
CCCCCCCCCCCCCCCC(=O)OCC(CSc1nccn1C)OC(=O)CCCCCCCCCCCCCCC (centres unmarked) [Compound 4],,< 3.5,
CC(C)CCC[C@@H](C)[C@H]1CC[C@H]2[C@@H]3CC=C4C[C@@H](SSCCN)CC[C@]4(C)[C@H]3CC[C@]12C [Compound 5],,6.8,Relative Transfection Efficiency (Lipofectin = 1.0) ([3]; Dioleoylphosphatidylcholine content 1:2): 0.84
CC(C)CCC[C@@H](C)[C@H]1CC[C@H]2[C@@H]3CC=C4C[C@@H](OC(=O)NCCCn5ccnc5)CC[C@]4(C)[C@H]3CC[C@]12C [Compound 6],,6,"Relative Transfection Efficiency (Lipofectin = 1.0) [3, 5]: 0.23"
CCCCCCCCCCCCCCCC(=O)OCC(CNc1ccncc1)OC(=O)CCCCCCCCCCCCCCC (centres unmarked) [Compound 8],,5.3,"Relative Transfection Efficiency (Lipofectin = 1.0) [3, 5]: 7.68"
"CCCCCCCC/C=C\CCCCCCCC(=O)OC[C@H](COC(=O)CCC(=O)OCC[N+](C)(C)C)OC(=O)CCCCCCC/C=C\CCCCCCCC [DOSC, 1,2-dioleoyl-3-succinyl-sn-glycerol choline ester]",no evidence of reduced cytotoxicity,,
"CCCCCCCC/C=C\CCCCCCCC(=O)OCC(C[N+](C)(C)C)OC(=O)CCCCCCC/C=C\CCCCCCCC (centres unmarked) [DOTAP, 1,2-Bis(oleoyloxy)-3-(4'-trimethylammonio)propane]",no evidence of reduced cytotoxicity,,Inhibition of transfection by serum [4]: inhibits transfection to some extent
"CCCCCCCC/C=C\CCCCCCCC(=O)OC[C@H](COC(=O)CCC[N+](C)(C)C)OC(=O)CCCCCCC/C=C\CCCCCCCC [DOTB, 1,2-dioleoyl-3-(4'-trimethylammonio)butanoyl-sn-glycerol]",no evidence of reduced cytotoxicity,,
CCCCCCCCCCCCCCCCCCN [Stearylamine],great cytotoxicity,,
